This note sets out measurements from BindingDB's records for doi:10.1021/jm300491y (San Francisco State University, 2012).

Where only a bound is given, the exact number is not on record here.

This test in a line: Inhibition of UT-B in wild type CD1 mouse erythrocyte assessed as hemolysis after 10 mins.
For the compound `CC(C)c1ccc(S(=O)(=O)c2nnn3c2nc(NCc2cccc4ccccc24)c2sccc23)cc1`, the IC50 (in general, the concentration that inhibits the measured activity by half) was over 2.5 µM.

With `Cc1ccc(S(=O)(=O)c2nnn3c2nc(N2CCCCC2)c2sccc23)cc1C`, the IC50 is over 25 µM.

In the case of `CCc1ccc(S(=O)(=O)c2nnn3c2nc(N2CCOCC2)c2sccc23)cc1`, the IC50 came out at 5.6 µM.
